Laboratory results taken from patent US20240199605A1, “SMALL MOLECULAR INHIBITORS OF NF-kB INDUCING KINASE” (Janssen Pharmaceutica NV, priority 2019, published 2024).

Key:
[1] = tested on: p-IKKα levels in L363 (NIK translocated multiple myeloma) cells; assay: Effect of compounds on p-IKKα levels in L363 cells (AlphaLISA SureFire Ultra); assay type: cell-based, human; conditions: Homo sapiens, L-363, 6 h, BAFF stimulated, MG132, 6 h, average of values, read-out: Assay 2 IC50
Protocol: Effect of Compounds on p-IKKα Levels in L363 (NIK Translocated Multiple Myeloma) Cells
All compounds tested were dissolved and serially diluted in DMSO, 1:3 dilution for 11 points in an Echo compatible plate. 100% DMSO was added to columns 12 and 24 of the plate to serve as high and low signal controls. This compound plate was used to spot 20 nL of compound or DMSO into a Greiner 384 well TC plate (781080). The final DMSO concentration was 0.3% (v/v) in cell assays. Human L363 cells (ATCC) were cultured in RPM11640 medium supplemented with GlutaMax, non-essential amino acids, sodium pyruvate and 10% fetal bovine serum. Cells were routinely maintained at densities of […] at 37° C. in a humidified 5% CO2 atmosphere incubator. Cells were passaged twice a week splitting back to obtain the low density. The day before the assay, cells were washed twice in HBSS (Hank's Balanced Salt Solution), resuspended in Dulbecco's Modified Eagle Medium (DMEM)+0.5% IgG and protease free BSA (Jackson Immuno Research Laboratories), +/−250 ng/ml recombinant human B-cell activating factor (BAFF/BLyS/TNFSF13B) and incubated overnight at 37° C. in a humidified 5% CO2 atmosphere (bulk stimulation with or without BAFF). The next day, the cell concentration was adjusted to 1×10^7 cells/ml in DMEM+/−250 ng/ml BAFF+/−10 μM MG132 and plated at 10 μl/well into compound or DMSO spotted 384 well TC plates. Seeded cells were incubated at 37° C. in a humidified 5% CO2 atmosphere for 6 h. After 6 h, the plates were removed from the incubator and cell lysis was achieved by the addition of 2.5 μl 5× lysis buffer containing protease and phosphatase inhibitors, followed by shaking on a plate shaker at room temperature for 15 min. At the end of this incubation, lysed cells were sequentially treated and incubated with acceptor and donor bead mixes according to the manufacturer's protocol for a 1 plate/2-incubation suspension cell assay (AlphaLISA SureFire Ultra p-IKKa (Ser 176/180) Assay Kit (Perkin Elmer). Plates were read using an EnVision® Multilabel Plate Reader (Perkin Elmer). Within an experiment, a concentration response curve for each compound was run in duplicate. The signal obtained in the test wells was normalized using high signal (BAFF stimulated cells, DMSO, MG132) and low signal (unstimulated cells, DMSO) controls. To determine the IC50, a sigmoidal curve was fitted to the plot of % inhibition versus Log10 compound concentration.

[2] = biological target: recombinant human NF-kappaB-inducing kinase (NIK/MAP3K14) (Homo sapiens (Human), UniProt Q99558); assay: Inhibition of auto-phosphorylation of recombinant human NIK/MAP3K14 (AlphaScreen); assay type: biochemical; conditions: NIK auto-phosphorylation, 5 μM ATP, 1 nM NIK, 2 h at 25° C.; average of values
recombinant human NF-kappaB-inducing kinase (NIK/MAP3K14), sequence (Q99558 whole entry): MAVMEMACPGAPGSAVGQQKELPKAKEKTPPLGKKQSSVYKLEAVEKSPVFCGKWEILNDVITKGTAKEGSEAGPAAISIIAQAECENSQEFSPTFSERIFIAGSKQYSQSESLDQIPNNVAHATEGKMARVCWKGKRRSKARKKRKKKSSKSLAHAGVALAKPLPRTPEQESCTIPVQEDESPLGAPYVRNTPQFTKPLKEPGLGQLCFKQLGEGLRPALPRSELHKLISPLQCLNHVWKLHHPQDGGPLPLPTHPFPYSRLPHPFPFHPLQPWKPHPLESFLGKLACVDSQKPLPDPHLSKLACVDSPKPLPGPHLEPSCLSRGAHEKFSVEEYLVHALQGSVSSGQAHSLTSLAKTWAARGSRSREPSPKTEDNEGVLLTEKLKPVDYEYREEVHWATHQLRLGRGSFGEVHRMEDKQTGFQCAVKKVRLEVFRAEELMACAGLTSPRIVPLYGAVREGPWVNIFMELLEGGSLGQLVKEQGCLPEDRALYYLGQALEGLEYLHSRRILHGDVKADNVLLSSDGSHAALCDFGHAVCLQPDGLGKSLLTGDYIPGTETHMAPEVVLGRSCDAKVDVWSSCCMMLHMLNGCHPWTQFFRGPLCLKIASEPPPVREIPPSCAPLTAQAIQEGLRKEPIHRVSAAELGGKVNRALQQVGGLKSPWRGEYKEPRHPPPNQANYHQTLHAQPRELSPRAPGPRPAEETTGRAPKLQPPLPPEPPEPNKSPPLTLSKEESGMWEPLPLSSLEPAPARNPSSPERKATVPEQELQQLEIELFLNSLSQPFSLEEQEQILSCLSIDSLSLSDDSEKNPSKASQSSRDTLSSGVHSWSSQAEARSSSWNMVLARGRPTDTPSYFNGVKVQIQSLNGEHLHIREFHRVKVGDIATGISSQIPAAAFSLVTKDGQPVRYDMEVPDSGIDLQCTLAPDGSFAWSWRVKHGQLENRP
Protocol: Inhibition of auto-phosphorylation of recombinant human NF-kappaB-inducing kinase (NIK/MAP3K14) activity (AlphaScreen®)
NIK/MAP3K14 auto-phosphorylation activity was measured using the AlphaScreen® (αscreen) format (Perkin Elmer). All compounds tested were dissolved in dimethyl sulfoxide (DMSO) and further dilutions were made in assay buffer. The final DMSO concentration was 0.7% (v/v) in assays. The assay buffer was 50 mM Tris pH 7.5 containing 1 mM EGTA (ethylene glycol tetraacetic acid), 1 mM DTT (dithiothreitol), 0.1 mM Na3VO4, 5 mM MgCl2, and 0.01% Tween® 20. The assays were carried out in 384 well Proxiplates (Perkin Elmer). The incubations consisted of the compound, 5 μM Adenosine-5′-triphosphate (ATP), and 1 nM NIK/MAP3K14. Incubations were initiated by the addition of GST-tagged NIK/MAP3K14 enzyme, carried out for 2 h at 25° C. and terminated by addition of stop buffer containing anti-phospho-IKK Ser176/180 antibody. Protein A Acceptor and Glutathione-Donor beads were added before reading using an EnVision® Multilabel Plate Reader (Perkin Elmer). […] IC50's were determined by fitting a sigmoidal curve to % inhibition of control versus Log10 compound concentration.

## Cc1ccc(C#C[C@]2(O)CCN(C)C2=O)cc1-c1nc2c(N)ncnc2s1 [Example 10, (R)-3-((3-(7-Aminothiazolo[5,4-d]pyrimidin-2-yl)-4-methylphenyl)ethynyl)-3-hydroxy-1-methylpyrrolidin-2-one]
[1]
  IC50: 8.1 nM
[2]
  IC50: ≤ 0.5 nM

## Cc1ccc(C#C[C@@]2(O)CCN(C)C2=O)cc1-c1nc2c(N)ncnc2s1 [Example 11, (S)-3-((3-(7-Aminothiazolo[5,4-d]pyrimidin-2-yl)-4-methylphenyl)ethynyl)-3-hydroxy-1-methylpyrrolidin-2-one]
[1]
  IC50: 2060 nM
[2]
  IC50: 83 nM

## CN1CC[C@@](O)(C#Cc2cccc(-c3ncc4ncnc(N)c4n3)c2)C1=O [Example 13, (R)-3-[2-[3-(4-Aminopyrimido[5,4-d]pyrimidin-6-yl)phenyl]ethynyl]-3-hydroxy-1-methyl-pyrrolidin-2-one]
[1]
  IC50: 2.8 nM
[2]
  IC50: ≤ 0.5 nM

## Cc1nc(N)c2nc(-c3cccc(C#C[C@]4(O)CCN(C)C4=O)c3)ncc2n1 [Example 14, (R)-3-((3-(8-Amino-6-methylpyrimido[5,4-d]pyrimidin-2-yl)phenyl)ethynyl)-3-hydroxy-1-methylpyrrolidin-2-one]
[1]
  IC50: 18 nM
[2]
  IC50: ≤ 0.5 nM

## CN1CC[C@@](O)(C#Cc2cccc(-c3cnc4ncnc(N)c4n3)c2)C1=O [Example 15, (R)-3-[2-[3-(4-Aminopteridin-6-yl)phenyl]ethynyl]-3-hydroxy-1-methyl-pyrrolidin-2-one]
[1]
  IC50: 50 nM
[2]
  IC50: 0.9 nM

## CN1CC[C@@](O)(C#Cc2cccc(-c3ccc4ncnc(N)c4c3)c2)C1=O [Example 16, (R)-3-[2-[3-(4-Aminoquinazolin-6-yl)phenyl]ethynyl]-3-hydroxy-1-methyl-pyrrolidin-2-one]
[1]
  IC50: 57 nM
[2]
  IC50: 0.7 nM

## Nc1nccc2cnc(-c3cccc(C#C[C@]4(O)CCn5ccnc54)c3)nc12 [Example 17, (R)-7-[2-[3-(8-Aminopyrido[3,4-d]pyrimidin-2-yl)phenyl]ethynyl]-5,6-dihydropyrrolo[1,2-a]imidazol-7-ol]
[1]
  IC50: 5.9 nM
[2]
  IC50: ≤ 0.5 nM

## Cc1nnc([C@](C)(O)C#Cc2cccc(-c3ncc4ccnc(N)c4n3)c2)o1 [Example 18, (R)-4-[3-(8-Aminopyrido[3,4-d]pyrimidin-2-yl)phenyl]-2-(5-methyl-1,3,4-oxadiazol-2-yl)but-3-yn-2-ol]
[1]
  IC50: 61 nM
[2]
  IC50: 0.9 nM

## CN1CC[C@@](O)(C#Cc2cccc(N3CCc4ccnc(N)c4C3)c2)C1=O [Example 20, (R)-3-((3-(8-Amino-3,4-dihydro-2,7-naphthyridin-2(1H)-yl)phenyl)ethynyl)-3-hydroxy-1-methylpyrrolidin-2-one]
[1]
  IC50: 55 nM
[2]
  IC50: 1.2 nM

## CN1CC[C@@](O)(C#Cc2cccc(-c3ccc4c(n3)c(N)nn4C)c2)C1=O [Example 21, (R)-3-[2-[3-(3-Amino-1-methyl-pyrazolo[4,3-b]pyridin-5-yl)phenyl]ethynyl]-3-hydroxy-1-methyl-pyrrolidin-2-one]
[1]
  IC50: 590 nM
[2]
  IC50: 22 nM

## CN1CC[C@@](O)(C#Cc2cccc(-c3ccc4[nH]nc(N)c4n3)c2)C1=O [Example 22, (R)-3-[2-[3-(3-Amino-1H-pyrazolo[4,3-b]pyridin-5-yl)phenyl]ethynyl]-3-hydroxy-1-methyl-pyrrolidin-2-one]
[1]
  IC50: 480 nM
[2]
  IC50: 4.3 nM

## Cc1ncnc2ccc(-c3cccc(C#C[C@]4(O)CCN(C)C4=O)c3)nc12 [Example 23, (R)-3-Hydroxy-1-methyl-3-((3-(4-methylpyrido[3,2-d]pyrimidin-6-yl)phenyl)ethynyl)pyrrolidin-2-one]
[1]
  IC50: 260 nM
[2]
  IC50: 10 nM

## CCOc1ncnc2ccc(-c3cccc(C#C[C@]4(O)CCN(C)C4=O)c3)nc12 [Example 24, (R)-3-((3-(4-Ethoxypyrido[3,2-d]pyrimidin-6-yl)phenyl)ethynyl)-3-hydroxy-1-methylpyrrolidin-2-one]
[1]
  IC50: 4030 nM
[2]
  IC50: 260 nM

## CN1CC[C@@](O)(C#Cc2cccc(-c3ccc4ncnc(N(C)C)c4n3)c2)C1=O [Example 25, (R)-3-((3-(4-(Dimethylamino)pyrido[3,2-d]pyrimidin-6-yl)phenyl)ethynyl)-3-hydroxy-1-methylpyrrolidin-2-one]
[1]
  IC50: 180 nM
[2]
  IC50: 2.1 nM

## CN1CC[C@@](O)(C#Cc2cccc(-c3ccc4ncnc(N5CCC5)c4n3)c2)C1=O [Example 26, (R)-3-((3-(4-(Azetidin-1-yl)pyrido[3,2-d]pyrimidin-6-yl)phenyl)ethynyl)-3-hydroxy-1-methylpyrrolidin-2-one]
[1]
  IC50: 58 nM
[2]
  IC50: 1.2 nM

## CNc1ncnc2ccc(-c3cccc(C#C[C@]4(O)CCN(C)C4=O)c3)nc12 [Example 27, (R)-3-Hydroxy-1-methyl-3-((3-(4-(methylamino)pyrido[3,2-d]pyrimidin-6-yl)phenyl)ethynyl)pyrrolidin-2-one]
[1]
  IC50: 240 nM
[2]
  IC50: 7.8 nM

## Cc1cc(-c2cccc(C#C[C@]3(O)CCN(C)C3=O)c2)nc2c(N)ncnc12 [Example 28, (R)-3-((3-(4-Amino-8-methylpyrido[3,2-d]pyrimidin-6-yl)phenyl)ethynyl)-3-hydroxy-1-methylpyrrolidin-2-one]
[1]
  IC50: 0.7 nM
[2]
  IC50: ≤ 0.5 nM

## [2H]c1nc(N)c2nc(-c3cc(C#C[C@]4(O)CCN(C)C4=O)ccc3OC(F)(F)F)ccc2n1 [Example 29, (R)-3-((3-(4-aminopyrido[3,2-d]pyrimidin-6-yl-2-d)-4-(trifluoromethoxy)phenyl)ethynyl)-3-hydroxy-1-methylpyrrolidin-2-one]
[1]
  IC50: 45 nM
[2]
  IC50: 4.1 nM

## CN1CC[C@@](O)(C#Cc2cccc(-c3ncc4cc[nH]c(=O)c4n3)c2)C1=O [Example 30, (R)-2-[3-[2-(3-Hydroxy-1-methyl-2-oxo-pyrrolidin-3-yl)ethynyl]phenyl]-7H-pyrido[3,4-d]pyrimidin-8-one]
[1]
  IC50: 1190 nM
[2]
  IC50: 60 nM

## CN1CC[C@](O)(C#Cc2cccc(-c3ncc4cc[nH]c(=O)c4n3)c2)C1=O [Example 31, (S)-2-[3-[2-(3-Hydroxy-1-methyl-2-oxo-pyrrolidin-3-yl)ethynyl]phenyl]-7H-pyrido[3,4-d]pyrimidin-8-one]
[1]
  IC50: 550 nM
[2]
  IC50: 23 nM

## C[C@@](O)(C#Cc1cccc(-c2ncc3ccnc(N)c3n2)c1)c1nccs1 [Example 32, (R)-4-[3-(8-Aminopyrido[3,4-d]pyrimidin-2-yl)phenyl]-2-thiazol-2-yl-but-3-yn-2-ol]
[1]
  IC50: 12 nM
[2]
  IC50: ≤ 0.5 nM

## Nc1nccc2cnc(-c3cccc(C#CC4(O)CCCC4)c3)nc12 [Example 33, 1-[2-[3-(8-Aminopyrido[3,4-d]pyrimidin-2-yl)phenyl]ethynyl]cyclopentanol]
[1]
  IC50: 620 nM
[2]
  IC50: 4.5 nM

## Cc1cc([C@](C)(O)C#Cc2cccc(-c3ncc4ccnc(N)c4n3)c2)no1 [Example 34, (R)-4-[3-(8-Aminopyrido[3,4-d]pyrimidin-2-yl)phenyl]-2-(5-methylisoxazol-3-yl)but-3-yn-2-ol]
[1]
  IC50: 52 nM
[2]
  IC50: ≤ 0.5 nM

## CC(C)(O)C#Cc1cccc(-c2ncc3ccnc(N)c3n2)c1 [Example 35, 4-[3-(8-Aminopyrido[3,4-d]pyrimidin-2-yl)phenyl]-2-methyl-but-3-yn-2-ol]
[1]
  IC50: 700 nM
[2]
  IC50: 15 nM

## CN1CC[C@@](O)(C#Cc2cccc(-c3ccc4ccnc(N)c4c3)c2)C1=O [Example 36, (R)-3-[2-[3-(1-Amino-7-isoquinolyl)phenyl]ethynyl]-3-hydroxy-1-methyl-pyrrolidin-2-one]
[1]
  IC50: 200 nM
[2]
  IC50: 1.9 nM
